Reference: article PMC9428149, “Tackling recalcitrant Pseudomonas aeruginosa infections in critical illness via anti-virulence monotherapy” (Nature Communications, 2022)
Values after ≈ are worked out from the molar mass of the structure shown. Where two headings read alike, the source gives them in different places.

Key:
[1] = tested on: pqsA promoter (PA14 PpqsA-GFPASV); assay: pqsA-GFP reporter expression; assay type: cell-based, Pseudomonas aeruginosa; conditions: Pseudomonas aeruginosa; for activity at 50 µM: PA14, read-out: % Production pqsA-GFP; for IC50: PA14, read-out: IC50 pqsA-GFP expression, PA14, 13 concentrations
[2] = tested on: PA14 AT/P cells; assay: AT/P cells formation assay in PA14; assay type: cell-based, Pseudomonas aeruginosa; conditions: for inhibition at 10 µM: Pseudomonas aeruginosa, PA14, 24 h, read-out: inhibition of AT/P cells formation
[3] = tested on: mvfR mutant constitutively expressing the pqsABCDE operon; assay type: cell-based; conditions: Pseudomonas aeruginosa, control about 100, single replicates (Figure 4a)
[4] = target: T1, MvfR protein (MvfRC87) (Pseudomonas aeruginosa, UniProt Q9I4X0); assay type: binding; conditions: SPR
T1 construct: The MvfRC87 protein purified as in Xiao et. al., 2006; made in house
Summary of the method: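 MvfRC87 amine-coupled to a CM7 chip (3000–5000 RU) and binding measured by SPR. Double-reference-corrected responses 5 s before end of association plotted against concentration, for inhibitor alone and with native ligand PQS, compared with responses calculated for different binding sites.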

[5] = Solubility in iPBS pH 7.4 by HPLC; assay type: physicochemical; conditions: isotonic phosphate buffer (iPBS), aqueous with cosolvent or surfactant or cyclodextrin, kinetic from dmso stock; iPBS pH 7.4, HPLC; read-out: Solubility (M) in PBS
Summary of the method: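 Compounds from 10 mM DMSO stock shaken 4 h at room temperature in iPBS pH 7.4 (10 mM PBS, 2.7 mM KCl, 140 mM NaCl, 0.05% Tween), then filtered. Concentration measured by HPLC-UV against a known standard solution; solubility given as ratio of compound in test solution to standard.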

[6] = tested on: pyocyanin production in PA14; assay: Pyocyanin production assay; conditions: Pseudomonas aeruginosa; for activity at 50 µM: PA14, 18 h, read-out: % Production Pyocyanin; for IC50: PA14, read-out: IC50 pyocyanin production
[7] = tested on: 16 MDR P. aeruginosa clinical isolates; assay: Pyocyanin production in MDR clinical isolates; conditions: Pseudomonas aeruginosa, 18 h, Control about 100, replicates
Experimental: The over-day culture was grown to OD600nm 1.5., diluted again at 1:10,000 in 5 mL LB and incubated with 10 μM of the test compound or the vehicle control for 18 hours at 37 °C and 200 rpm in an incubator shaker. After 18 h, 1 mL of culture was centrifuged for 2 min at 20.000 x g. The supernatant was transferred to a new tube, 200 μL of this were loaded in a flat-bottom 96-well plate, and the pyocyanin levels were quantified by measuring at OD690nm in the infinite F200 plate reader using the Magellan software (Tecan, Switzerland). The same procedure was also followed for the pyocyanin production assessment for all the P. aeruginosa clinical isolates assessed in this study. The percent of pyocyanin was calculated compared to the PA14 culture grown in the absence of compounds.
Pyocyanin production was measured in 16 P.
aeruginosa clinical isolates 18hr post-growth in the presence or absence of 10 µM of each NAM
compound. The percent of pyocyanin production was calculated by comparing the same strain grown
in the presence of the vehicle control. b.

[8] = tested on: ΔmvfR biofilm; assay: Biofilm formation of ΔmvfR mutant (off-target); conditions: Pseudomonas aeruginosa, PA14, 24 h, read-out: Biofilm formation, ΔmvfR + compound; PA14 about 100; single replicates (Figure 4c)
[9] = tested on: PA14 isogenic mutant ΔmvfR AT/P cells; assay: AT/P cell formation in ΔmvfR mutant (off-target); conditions: Pseudomonas aeruginosa, PA14, 24 h, read-out: AT/P cell formation, ΔmvfR + compound; PA14 about 100; single replicates (Figure 4b)
Experimental: Cells were grown in the presence of 10 μg mL^−1 meropenem, with or without 10 µM of the compounds for 24 h. Values were normalized to cells grown for 4 h in the absence of antibiotics and compounds. The ∆mvfR cells grown with antibiotics and vehicles were considered control, and the percentage values were calculated compared to control. c Biofilm formation of mutant ∆mvfR cells with or without compound. […] The number of biological replicates for each compound and strain is depicted in the graph. The error bars denote ±SEM.
The AT/P cell formation assay was performed according to the method previously described in Starkey et al., 2014 (persister cell assay). The over-day culture was incubated at 37 °C with shaking at 200 rpm until the culture OD600nm was 3.0. The culture was then diluted at 1:100 and grown in the same conditions for 4 h. After 4 h, 200 µL were collected, and serial dilutions were plated on LB agar plates for CFU quantification (as normalizers). The remainder of the culture was treated with meropenem to a final concentration of 100 × MIC (Minimum Inhibitory Concentration; 10 mg L^−1) and compounds at a final concentration of 10 µM. After 24 h, culture aliquots were 10-fold serially diluted in LB broth and plated on LB agar for CFU quantification. The AT/P fraction was determined as the normalizers (pre-antibiotic) ratio divided by the AT/P fraction (24 h post-antibiotic)[22].

[10] = tested on: MvfR-regulated small molecules in PA14; assay: Production of HAQs, 2-AA, DHQ and AA in PA14 cultures (LC-MS); conditions: Pseudomonas aeruginosa
[11] = read-out: DHQ, ΔmvfR-pqsABCD strain
[12] = read-out: HQNO, ΔmvfR-pqsABCD strain
[13] = read-out: PQS, ΔmvfR-pqsABCD strain
[14] = read-out: Pyocyanin production relative to Control, clinical isolate LGR-4325
[15] = read-out: Pyocyanin production relative to Control, clinical isolate LGR-4326
[16] = read-out: Pyocyanin production relative to Control, clinical isolate LGR-4327
[17] = read-out: Pyocyanin production relative to Control, clinical isolate LGR-4328
[18] = read-out: Pyocyanin production relative to Control, clinical isolate LGR-4330
[19] = read-out: Pyocyanin production relative to Control, clinical isolate LGR-4331 (first section, r117)
[20] = read-out: Pyocyanin production relative to Control, clinical isolate LGR-4331 (second section, r140)
[21] = read-out: Pyocyanin production relative to Control, clinical isolate LGR-4333
[22] = read-out: Pyocyanin production relative to Control, clinical isolate LGR-4343
[23] = read-out: Pyocyanin production relative to Control, clinical isolate LGR-4344
[24] = read-out: Pyocyanin production relative to Control, clinical isolate LGR-4348
[25] = read-out: Pyocyanin production relative to Control, clinical isolate LGR-4356
[26] = read-out: Pyocyanin production relative to Control, clinical isolate LGR-4362
[27] = read-out: Pyocyanin production relative to Control, clinical isolate LGR-4363
[28] = read-out: Pyocyanin production relative to Control, clinical isolate LGR-4364 (first section, r326)
[29] = read-out: Pyocyanin production relative to Control, clinical isolate LGR-4364 (second section, r349)
[30] = PA14, read-out: % Production 2-AA
[31] = PA14, read-out: % Production AA
[32] = PA14, read-out: % Production DHQ
[33] = PA14, read-out: % Production HHQ
[34] = PA14, read-out: % Production HQNO
[35] = PA14, read-out: % Production PQS
[36] = PA14, read-out: HHQ production inhibition
[37] = PA14, read-out: HQNO production inhibition
[38] = PA14, read-out: PQS production inhibition
[39] = PA14, read-out: inhibition of 2-AA production
[40] = PA14, read-out: inhibition of DHQ production

T1 sequence (Q9I4X0 87-332): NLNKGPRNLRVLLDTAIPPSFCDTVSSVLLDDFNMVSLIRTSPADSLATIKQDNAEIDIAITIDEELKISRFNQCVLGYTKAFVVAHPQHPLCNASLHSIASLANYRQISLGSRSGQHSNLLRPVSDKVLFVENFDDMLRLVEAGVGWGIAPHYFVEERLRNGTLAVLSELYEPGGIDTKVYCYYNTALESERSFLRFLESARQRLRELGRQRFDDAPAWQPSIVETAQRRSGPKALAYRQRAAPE

CC(C(=O)Nc1ccc(C#N)cc1)C(=O)Nc1ccc(C#N)cc1 [D80]
activity at 50 µM [1]: 10%
IC50 [1]: 10600 nM
inhibition at 10 µM [2]: ≥ 51%
activity at 50 µM ([3]; read-out: 2-AA, ΔmvfR-pqsABCD strain): 101%
activity at 50 µM [3, 11]: 101%
activity at 50 µM ([3]; read-out: HHQ, ΔmvfR-pqsABCD strain): 96.1%
activity at 50 µM [3, 12]: 86.4%
activity at 50 µM [3, 13]: 99.4%
Response Unit (RU) ([4]; Concentration 1.00E-05 M): 35.4 RU
Response Unit (RU) ([4]; Concentration 1.00E-06 M): 22.9 RU
Response Unit (RU) ([4]; Concentration 1.00E-07 M): 7 RU
Response Unit (RU) ([4]; Concentration 1.00E-08 M): 0.6 RU
Response Unit (RU) ([4]; Concentration 3.16E-06 M): 30.6 RU
Response Unit (RU) ([4]; Concentration 3.16E-07 M): 13.9 RU
Response Unit (RU) ([4]; Concentration 3.16E-08 M): 2.6 RU
solubility at 4 h [5]: 2.9e-05 M (≈ 9.23 µg/mL)
activity at 50 µM [6]: 7%
IC50 [6]: 3600 nM
activity at 10 µM [7, 14]: 40%
activity at 10 µM [7, 15]: 39.5%
activity at 10 µM [7, 16]: 32.3%
activity at 10 µM [7, 17]: 30.6%
activity at 10 µM [7, 18]: 15.3%
activity at 10 µM [7, 19]: 41.5%
activity at 10 µM [7, 20]: 37.9%
activity at 10 µM [7, 21]: 65.7%
activity at 10 µM [7, 22]: 62%
activity at 10 µM [7, 23]: 31.8%
activity at 10 µM [7, 24]: 39.5%
activity at 10 µM [7, 25]: 32.3%
activity at 10 µM [7, 26]: 30.6%
activity at 10 µM [7, 27]: 15.3%
activity at 10 µM [7, 28]: 41.5%
activity at 10 µM [7, 29]: 37.9%
activity at 10 µM [8]: 42.3%
activity at 10 µM [9]: 36%
activity at 50 µM [10, 30]: 16%
activity at 50 µM [10, 31]: 832%
activity at 50 µM [10, 32]: 20%
activity at 50 µM [10, 33]: 8%
activity at 50 µM [10, 34]: 64%
activity at 50 µM [10, 35]: 20%
inhibition at 50 µM [10, 36]: 89 to 99%
inhibition at 50 µM [10, 37]: 40 to 92%
inhibition at 50 µM [10, 38]: 76 to 97%
inhibition at 50 µM [10, 39]: 82 to 95%
inhibition at 50 µM [10, 40]: 82 to 96%

N#Cc1ccc(NC(=O)CC(=O)Nc2ccc(C#N)cc2)cc1 [D43]
activity at 50 µM [1]: 8%
IC50 [1]: 970 nM
AT/P cells formation, percentage of control (single replicates) ([2]; PA14, 10 μg mL^−1 meropenem, 10 µM compound, 24 h, control PA14 + vehicle): 39.10%
inhibition at 10 µM [2]: ≥ 51%
activity at 50 µM [3, 11]: 103%
activity at 50 µM [3, 12]: 91.3%
activity at 50 µM [3, 13]: 99.4%
Response Unit (RU) ([4]; Concentration 1.00E-05 M): 29.2 RU
Response Unit (RU) ([4]; Concentration 1.00E-06 M): 22.5 RU
Response Unit (RU) ([4]; Concentration 1.00E-07 M): 9.9 RU
Response Unit (RU) ([4]; Concentration 1.00E-08 M): 2.7 RU
Response Unit (RU) ([4]; Concentration 3.16E-06 M): 26.7 RU
Response Unit (RU) ([4]; Concentration 3.16E-07 M): 16.5 RU
Response Unit (RU) ([4]; Concentration 3.16E-08 M): 5 RU
solubility at 4 h [5]: 1.1e-05 M (≈ 3.35 µg/mL)
activity at 50 µM [6]: 8%
IC50 [6]: 1380 nM
activity at 10 µM [7, 14]: 14.5%
activity at 10 µM [7, 15]: 9.84%
activity at 10 µM [7, 16]: 26.2%
activity at 10 µM [7, 17]: 9.98%
activity at 10 µM [7, 18]: 15%
activity at 10 µM [7, 19]: 16.3%
activity at 10 µM [7, 20]: 11.8%
activity at 10 µM [7, 21]: 15.2%
activity at 10 µM [7, 22]: 24.3%
activity at 10 µM [7, 23]: 25.8%
activity at 10 µM [7, 24]: 12.6%
activity at 10 µM [7, 25]: 20.8%
activity at 10 µM [7, 26]: 23.7%
activity at 10 µM [7, 27]: 13.4%
activity at 10 µM [7, 28]: 21.7%
activity at 10 µM [7, 29]: 19.3%
activity at 10 µM [8]: 41.4%
activity at 10 µM [9]: 30.1%
activity at 50 µM [10, 30]: 19%
activity at 50 µM [10, 31]: 531%
activity at 50 µM [10, 32]: 34%
activity at 50 µM [10, 33]: 22%
activity at 50 µM [10, 34]: 39%
activity at 50 µM [10, 35]: 24%
inhibition at 50 µM [10, 36]: 89 to 99%
inhibition at 50 µM [10, 37]: 40 to 92%
inhibition at 50 µM [10, 38]: 76 to 97%
inhibition at 50 µM [10, 39]: 82 to 95%
inhibition at 50 µM [10, 40]: 82 to 96%

N#Cc1ccc(NC(=O)CC(=O)Nc2ccc(Cl)cc2)cc1 [D41]
activity at 50 µM [1]: 8%
IC50 [1]: 1090 nM
inhibition at 10 µM [2]: ≥ 76%
activity at 50 µM [3, 12]: 81.9%
Response Unit (RU) ([4]; Concentration 1.00E-05 M): 28.8 RU
Response Unit (RU) ([4]; Concentration 1.00E-06 M): 22.7 RU
Response Unit (RU) ([4]; Concentration 1.00E-07 M): 10.6 RU
Response Unit (RU) ([4]; Concentration 1.00E-08 M): 2.6 RU
Response Unit (RU) ([4]; Concentration 3.16E-06 M): 26.5 RU
Response Unit (RU) ([4]; Concentration 3.16E-07 M): 16.9 RU
Response Unit (RU) ([4]; Concentration 3.16E-08 M): 5.4 RU
solubility at 4 h [5]: 1.3e-05 M (≈ 4.08 µg/mL)
activity at 50 µM [6]: 6%
IC50 [6]: 1800 nM
activity at 10 µM [7, 14]: 15.5%
activity at 10 µM [7, 15]: 14.8%
activity at 10 µM [7, 16]: 34.4%
activity at 10 µM [7, 17]: 11.9%
activity at 10 µM [7, 18]: 13.4%
activity at 10 µM [7, 19]: 17.4%
activity at 10 µM [7, 20]: 10.7%
activity at 10 µM [7, 21]: 18.8%
activity at 10 µM [7, 22]: 17.4%
activity at 10 µM [7, 23]: 21.8%
activity at 10 µM [7, 24]: 17.7%
activity at 10 µM [7, 25]: 18.8%
activity at 10 µM [7, 26]: 35.7%
activity at 10 µM [7, 27]: 23.4%
activity at 10 µM [7, 28]: 19.1%
activity at 10 µM [7, 29]: 22%
activity at 10 µM [8]: 25.4%
activity at 10 µM [9]: 43.4%
activity at 50 µM [10, 30]: 6%
activity at 50 µM [10, 31]: 739%
activity at 50 µM [10, 32]: 11%
activity at 50 µM [10, 33]: 2%
activity at 50 µM [10, 34]: 15%
activity at 50 µM [10, 35]: 9%
inhibition at 50 µM [10, 36]: 89 to 99%
inhibition at 50 µM [10, 37]: 40 to 92%
inhibition at 50 µM [10, 38]: 76 to 97%
inhibition at 50 µM [10, 39]: 82 to 95%
inhibition at 50 µM [10, 40]: 82 to 96%
